Consider seven compounds from paper PMC6017299, “Ent-Clerodane Diterpenes from the Bark of Croton oligandrus Pierre ex Hutch. and Assessment of Their Cytotoxicity against Human Cancer Cell Lines” (Molecules : A Journal of Synthetic Chemistry and Natural …, 2018).

Like-named read-outs stand apart in the source and are kept apart here.

Holding throughout (format): cell-based
The test system of assay [1] is PC3 (human prostate cancer cell line). Briefly: MTT cell viability assay, PC3 cells. The following applies: 0 to 200 µM, 48 h, mean ± SEM (n = 3), read-out: IC50 (50% cell growth inhibition) PC-3. As for the experimental part:
(§1) The in vitro activity of the crude extracts, fractions and isolated compounds from C. oligandrus on metabolic cell viability was assessed against A549 (adenocarcinoma human alveolar basal epithelial cell 211 line), MCF7 (human breast adenocarcinoma cell line), PC3 (human prostate cancer cell line) and PNT2 212 (human normal prostate epithelium cell line). The resulting inhibitory activity is termed “cytotoxic activity” throughout the manuscript. The cell lines were grown in RPMI medium supplemented with L-glutamine (2 mM), penicillin (100 U/mL), streptomycin (100 μg/mL) and 10% foetal bovine serum (FBS) and cultured at 37 °C, 5% CO2 and 95% humidity. For experimental use, the cells were seeded into 96-well plates (1.2 × 10^4/well) and incubated for 24 h. Cells were then treated with crude extract (0–250 µg/mL) for 24 h or isolated compounds (0 to 200 µM) for 48 h and the cell viability was measured using the MTT assay. The formazan crystals formed were dissolved in DMSO and optical density was read at 570 nm using a ClarioStar plate reader, Manchester, UK. Three individual wells were assayed per treatment; the assay was repeated three times and cytotoxic activity was determined using the percentage of absorbance compared to the control cells [(absorbance of treated cells/absorbance of untreated cells) × 100]. Doxorubicin was used as the positive control and the IC50 value of each test sample was calculated using the software Graphad Prism 7.02, La Jolla, CA, USA.

Assay [2] concerns MCF7 (human breast adenocarcinoma cell line). The assay is described as follows: MTT cell viability assay, MCF7 cells. The following applies: 0 to 200 µM, mean ± SEM (n = 3), read-out: IC50 (50% cell growth inhibition) MCF-7. As for the experimental part:
(§2) The resulting inhibitory activity is termed “cytotoxic activity” throughout the manuscript. The cell lines were grown in RPMI medium supplemented with L-glutamine (2 mM), penicillin (100 U/mL), streptomycin (100 μg/mL) and 10% foetal bovine serum (FBS) and cultured at 37 °C, 5% CO2 and 95% humidity. For experimental use, the cells were seeded into 96-well plates (1.2 × 10^4/well) and incubated for 24 h. […] The formazan crystals formed were dissolved in DMSO and optical density was read at 570 nm using a ClarioStar plate reader, Manchester, UK. Three individual wells were assayed per treatment; the assay was repeated three times and cytotoxic activity was determined using the percentage of absorbance compared to the control cells [(absorbance of treated cells/absorbance of untreated cells) × 100].

Assay [3] concerns PNT2 (human normal prostate epithelium cell line). Briefly: MTT cell viability assay, PNT2 cells. As to conditions: 0 to 200 µM, 48 h, noncancerous cells, mean ± SEM (n = 3), read-out: IC50 (50% cell growth inhibition) PNT2. Here is the method:
as §1

Assay [4] has as its system A549 (adenocarcinoma human alveolar basal epithelial cell line). Briefly: MTT cell viability assay, A549 cells. The following applies: 0 to 200 µM, 48 h, mean ± SEM (n = 3), read-out: IC50 (50% cell growth inhibition) A549. Here is the method: as §1
Assay [5] deals with A549, MCF7, PC3 and PNT2 cell lines. The assay is described as follows: MTT cell viability assay, statements across the cell line panel. The following applies: Homo sapiens, positive control, read-out: IC50 range between the cell lines used. As for the experimental part: as §2
Setting [6] is: Homo sapiens, PC-3, isolated compounds.
[7] abbreviates: Homo sapiens, PNT2, isolated compounds.
The mark [8] stands for this setting: Homo sapiens, MCF7, isolated compounds, 48 h.
The mark [9] stands for this setting: Homo sapiens, A549, isolated compounds.

As for `COC(=O)C1=CC(=O)C=C2C1(C(=O)OC)CCC(C)C21CC(c2ccoc2)OC1=O` (centres unmarked) [Compound 1, megalocarpoidolide D], the half-inhibitory concentration (IC50) in assay [1] (setting [6]) is more than 200 µM; in assay [2] (Homo sapiens, MCF7, 48 h, isolated compounds) it was 136 ± 22.7 µM; in assay [3] (setting [7]) it was more than 200 µM; in assay [4] (isolated compounds), 63.8 ± 13.8 µM.
For `COC(=O)C1=CC(=O)C=C2C1(C(=O)OC)CCC(C)C21CC(c2ccoc2)OC1=O` (stereo not drawn) [Compound 2, 12-epi-megalocarpoidolide D], the IC50 was more than 200 µM in assay [1] (isolated compounds); 171 ± 51.4 µM in assay [2] (isolated compounds, 48 h); more than 200 µM in assay [3] (isolated compounds); 139 ± 22.1 µM in assay [4] (isolated compounds).
Take `COC(=O)C1=CCCC2C1(C(=O)OC)CCC(C)C21CC(c2ccoc2)OC1=O` (stereo not drawn) [Compound 5, 12-epi-crotocorylifuran]: the IC50 in assay [1] (setting [6]) is more than 200 µM; in assay [2] (setting [8]) it was more than 200 µM; in assay [3] (setting [7]), more than 200 µM; in assay [4] (setting [9]), 107 ± 27.2 µM.
For the compound `COc1cc(C=O)ccc1O` [Compound 8, vanillin], the IC50 in assay [1] (setting [6]), in assay [2] (setting [8]), in assay [3] (setting [7]) and in assay [4] (setting [9]) was more than 200 µM throughout.
Regarding `CC(=O)O[C@H]1CC[C@]2(C)[C@H]3CC[C@]4(C)C(=CC[C@@]5(C(=O)O)CCC(C)(C)C[C@H]54)[C@]3(C)CC[C@H]2C1(C)C` [Compound 9, acetyl-aleuritolic acid], the IC50 was 172 ± 39.7 µM in assay [1] (setting [6]), more than 200 µM in assay [2] (setting [8]), 168 ± 25.3 µM in assay [3] (setting [7]) and 137 ± 18.9 µM in assay [4] (setting [9]).
For the compound `C=C(C)[C@@H]1CC[C@]2(C)CC[C@]3(C)[C@H](CC[C@@H]4[C@@]5(C)CC[C@H](O)C(C)(C)[C@@H]5CC[C@]43C)[C@@H]12` [Compound 10, lupeol], the IC50 in assay [1] (setting [6]) was 136 ± 21.1 µM; in assay [2] (setting [8]) it was more than 200 µM; in assay [3] (setting [7]), more than 200 µM; in assay [4] (setting [9]), more than 200 µM.
As to `COc1cccc2c1C(=O)c1c(O)c3c(c(O)c1C2=O)C[C@@](O)(C(=O)CO)C[C@@H]3O[C@H]1C[C@H](N)[C@H](O)[C@H](C)O1` [Doxorubicin, reference compound], the IC50 in assay [1] (setting [6]) was 16.4 ± 2.9 µM; in assay [2] (setting [8]) it was 0.7 ± 0.1 µM; in assay [3] (setting [7]) it was 1.5 ± 0.3 µM; in assay [4] (setting [9]) it was 1.3 ± 0.3 µM; in assay [5] it was 0.7 to 16.4 µM.
